How the values were obtained:
giant foxtail = assay: Test B pre-/postemergence herbicide test; type: in vivo, Setaria faberi; conditions: for Foxtail, Giant plant response rating: postemergence, scale 0 (no effect) to 100 (complete control)
Outline: (§1)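 Greenhouse pot assay with simultaneous preemergence (treated seed) and postemergence (2–18 cm seedlings) applications of surfactant-containing, non-phytotoxic solvent formulations. Response scored visually 13–15 days later on a 0–100 scale, 100 meaning complete control.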

[1] = system: small flower umbrella sedge; assay: Test B flooded paddy test; type: in vivo, Cyperus difformis; conditions: 1000 g ai/ha, scale 0 to 100 (0 no effect, 100 complete control)
Outline: (§2)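 Greenhouse test; postemergence application to plants at 1–4 leaves (2–18 cm); paddy species at 2 leaves; evaluated visually vs controls at 13–15 days; scale 0–100 (100 = complete control).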

large crabgrass = assay: Test B pre-/postemergence herbicide test; type: in vivo, Digitaria sanguinalis; conditions: for Crabgrass, Large plant response rating: postemergence, scale 0 (no effect) to 100 (complete control)
Outline: as §1

wheat = assay: Test B postemergence herbicide test; type: in vivo, Triticum aestivum; design: key to Wheat plant response rating: 0 = no effect, 100 = complete control; conditions: postemergence, visual rating, scale 0 (no effect) to 100 (complete control)
Outline: (§3)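 Postemergence plants were sprayed with formulated test chemicals at 2 to 18 cm height (1- to 4-leaf stage); paddy species were grown to the 2-leaf stage. After 13 to 15 days in a greenhouse, injury was rated visually against untreated controls on a 0–100 scale (0 = no effect, 100 = complete control).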

blackgrass = assay: Test B postemergence herbicide test; type: in vivo, Alopecurus myosuroides; conditions: postemergence, visual rating, scale 0 (no effect) to 100 (complete control)
Outline: as §2

corn = assay: Test B pre-/postemergence herbicide test; type: in vivo, Zea mays; conditions: for Corn plant response rating: postemergence, scale 0 (no effect) to 100 (complete control)
Outline: as §1

ducksalad [2] = assay: Test C flooded paddy test; type: in vivo, Heteranthera limosa
rice [3] = assay: Test C flooded paddy test; type: in vivo, Oryza sativa
Outline: (§4)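 Postemergence sprays applied to plants 2 to 18 cm tall (1- to 4-leaf stage); paddy species grown to 2-leaf stage under flooding. After 12 to 14 days in greenhouse, visual rating versus untreated controls on 0–100 scale (0 no effect, 100 complete control).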

barnyardgrass [4] = assay: Test B pre-/postemergence herbicide test; type: in vivo, Echinochloa crus-galli; conditions: 0 = no effect, 100 = complete control, preemergence
Outline: as §1

pigweed = assay: Test B pre-/postemergence herbicide test; type: in vivo, Amaranthus retroflexus; conditions: for Pigweed plant response rating: postemergence, scale 0 (no effect) to 100 (complete control)
Outline: as §1

Surinam grass = assay: Test B pre-/postemergence herbicide test; type: in vivo, Urochloa decumbens; conditions: for Surinam Grass plant response rating: postemergence, scale 0 (no effect) to 100 (complete control)
Outline: as §1

morningglory = assay: Test B pre-/postemergence herbicide test; type: in vivo, Ipomoea coccinea
Outline: as §1

rice [5] = assay: Test B pre-/postemergence herbicide test; type: in vivo, Oryza sativa; conditions: 0 = no effect, 100 = complete control, preemergence
Outline: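 Species tested were Echinochloa crus-galli, Ipomoea coccinea, Xanthium strumarium and Oryza sativa, treated both before emergence and at the 1- to 4-leaf stage; rice and barnyardgrass were also tested under flooding at 2 leaves. Greenhouse incubation lasted 13–15 days before visual 0–100 scoring.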

barnyardgrass [6] = assay: Test C flooded paddy test; type: in vivo, Echinochloa crus-galli
Outline: as §4

lambsquarters = assay: Test B pre-/postemergence herbicide test; type: in vivo, Chenopodium album; conditions: for Lambsquarters plant response rating: postemergence, scale 0 (no effect) to 100 (complete control)
Outline: as §1

velvetleaf = assay: Test B pre-/postemergence herbicide test; type: in vivo, Abutilon theophrasti; conditions: for Velvetleaf plant response rating: postemergence, scale 0 (no effect) to 100 (complete control)
Outline: as §1

rice [7] = assay: Test B flooded paddy test; type: in vivo, Oryza sativa; conditions: 1000 g ai/ha, scale 0 to 100 (0 no effect, 100 complete control)
Outline: as §2

barnyardgrass [8] = assay: Test B flooded paddy test; type: in vivo, Echinochloa crus-galli; conditions: 1000 g ai/ha, scale 0 to 100 (0 no effect, 100 complete control)
Outline: as §2

[9] = system: smallflower umbrella sedge; assay: Test C flooded paddy test; type: in vivo, Cyperus difformis
ducksalad [10] = assay: Test B flooded paddy test; type: in vivo, Heteranthera limosa; conditions: 1000 g ai/ha, scale 0 to 100 (0 no effect, 100 complete control)
Outline: as §2

cocklebur = assay: Test B pre-/postemergence herbicide test; type: in vivo, Xanthium strumarium; conditions: for Cocklebur plant response rating: postemergence, scale 0 (no effect) to 100 (complete control)
Outline: as §1

wild oat = assay: Test B postemergence herbicide test; type: in vivo, Avena fatua; conditions: postemergence, visual rating, scale 0 (no effect) to 100 (complete control)
Outline: as §3

[11] = 125 g ai/ha, 0 = no effect, 100 = complete control, preemergence
[12] = 500 g ai/ha, visual rating, 0 = no effect, 100 = complete control, preemergence
[13] = 62 g ai/ha, scale 0 to 100 (0 no effect, 100 complete control)
[14] = 125 g ai/ha, scale 0 to 100 (0 no effect, 100 complete control)
[15] = 250 g ai/ha, scale of 0 to 100, 0 is no effect, 100 is complete control
[16] = 500 g ai/ha, visual rating after 12 to 14 days, scale 0 to 100 (0 no effect, 100 complete control)

With `CCc1cn(C(C)(C)C)nc1C(=O)Nc1cc(C(=O)N(C)CC)ccn1` [Compound 235] the “Foxtail, Giant plant response rating (0 to 100 scale)” value (giant foxtail; [11]) was 0, the “Plant response rating, Foxtail, Giant” value (giant foxtail; [12]) was 50 and the “Foxtail, Giant plant response rating” value (giant foxtail; 125 g ai/ha, visual rating) was 10. The “Foxtail, Giant plant response rating” value (giant foxtail; 500 g ai/ha, visual rating) was 30, the “Sedge, Umbrella plant response rating” value [1] was 80 and the “Crabgrass, Large plant response rating (0 to 100 scale)” value (large crabgrass; [11]) was 40. For the same compound, the “Plant response rating, Crabgrass, Large” value (large crabgrass; [12]) was 90, the “Crabgrass, Large plant response rating” value (large crabgrass; 125 g ai/ha, visual rating) was 10 and the “Crabgrass, Large plant response rating” value (large crabgrass; 500 g ai/ha, visual rating) was 20. For the same compound, the “Wheat plant response rating” value (wheat; 125 g ai/ha) was 0, the “Wheat plant response rating” value (wheat; 500 g ai/ha) was 20 and the “Blackgrass plant response rating” value (blackgrass; 125 g ai/ha) was 0. The “Blackgrass plant response rating” value (blackgrass; 500 g ai/ha) was 20, the “Corn plant response rating (0 to 100 scale)” value (corn; [11]) was 0 and the “Plant response rating, Corn” value (corn; [12]) was 20. For the same compound, the “Corn plant response rating” value (corn; 125 g ai/ha, visual rating) was 20, the “Corn plant response rating” value (corn; 500 g ai/ha, visual rating) was 40 and the “Ducksalad plant response rating” value (ducksalad [2]; [13]) was 0. For the same compound, the “Ducksalad plant response rating” value (ducksalad [2]; [14]) was 0, the “Ducksalad plant response rating” value (ducksalad [2]; [15]) was 0 and the “Plant response rating, Ducksalad” value (ducksalad [2]; [16]) was 75. For the same compound, the “Rice plant response rating” value (rice [3]; [13]) was 0, the “Rice plant response rating” value (rice [3]; [14]) was 0 and the “Rice plant response rating” value (rice [3]; [15]) was 25. For the same compound, the “Plant response rating, Rice” value (rice [3]; [16]) was 35, the “Barnyardgrass plant response rating (0 to 100 scale)” value (barnyardgrass [4]; 125 g ai/ha) was 10 and the “Plant response rating, Barnyardgrass” value (barnyardgrass [4]; 500 g ai/ha, visual rating) was 50. For the same compound, the “Pigweed plant response rating (0 to 100 scale)” value (pigweed; [11]) was 30, the “Plant response rating, Pigweed” value (pigweed; [12]) was 100 and the “Pigweed plant response rating” value (pigweed; 125 g ai/ha, visual rating) was 30. For the same compound, the “Pigweed plant response rating” value (pigweed; 500 g ai/ha, visual rating) was 40, the “Surinam Grass plant response rating (0 to 100 scale)” value (Surinam grass; [11]) was 10 and the “Plant response rating, Surinam Grass” value (Surinam grass; [12]) was 60. For the same compound, the “Surinam Grass plant response rating” value (Surinam grass; 125 g ai/ha, visual rating) was 10, the “Surinam Grass plant response rating” value (Surinam grass; 500 g ai/ha, visual rating) was 10 and the “Morningglory plant response rating (0 to 100 scale)” value (morningglory; [11]) was 10. The “Plant response rating, Morningglory” value (morningglory; [12]) was 10, the “Morningglory plant response rating” value (morningglory; postemergence, 500 g ai/ha, visual rating, scale 0 (no effect) to 100 (complete control)) was 70 and the “Rice plant response rating (0 to 100 scale)” value (rice [5]; 125 g ai/ha) was 0. The “Plant response rating, Rice” value (rice [5]; 500 g ai/ha, visual rating) was 20, the “Barnyardgrass plant response rating” value (barnyardgrass [6]; [13]) was 0 and the “Barnyardgrass plant response rating” value (barnyardgrass [6]; [14]) was 0. The “Barnyardgrass plant response rating” value (barnyardgrass [6]; [15]) was 0, the “Plant response rating, Barnyardgrass” value (barnyardgrass [6]; [16]) was 0 and the “Lambsquarters plant response rating (0 to 100 scale)” value (lambsquarters; [11]) was 50. The “Plant response rating, Lambsquarters” value (lambsquarters; [12]) was 90, the “Lambsquarters plant response rating” value (lambsquarters; 125 g ai/ha, visual rating) was 40 and the “Lambsquarters plant response rating” value (lambsquarters; 500 g ai/ha, visual rating) was 50. The “Velvetleaf plant response rating (0 to 100 scale)” value (velvetleaf; [11]) was 10, the “Plant response rating, Velvetleaf” value (velvetleaf; [12]) was 30 and the “Velvetleaf plant response rating” value (velvetleaf; 125 g ai/ha, visual rating) was 20. The “Velvetleaf plant response rating” value (velvetleaf; 500 g ai/ha, visual rating) was 30, the “Rice plant response rating” value (rice [7]) was 40 and the “Barnyardgrass plant response rating” value (barnyardgrass [8]) was 40. The “Sedge, Umbrella plant response rating” value [9, 13] was 0, the “Sedge, Umbrella plant response rating” value [9, 14] was 50 and the “Sedge, Umbrella plant response rating” value [9, 15] was 55. For the same compound, the “Plant response rating, Sedge, Umbrella” value [9, 16] was 80, the “Ducksalad plant response rating” value (ducksalad [10]) was 90 and the “Cocklebur plant response rating (0 to 100 scale)” value (cocklebur; [11]) was 0. For the same compound, the “Plant response rating, Cocklebur” value (cocklebur; [12]) was 0, the “Cocklebur plant response rating” value (cocklebur; 125 g ai/ha, visual rating) was 0 and the “Cocklebur plant response rating” value (cocklebur; 500 g ai/ha, visual rating) was 30. The “Oat, Wild plant response rating” value (wild oat; 125 g ai/ha) was 10 and the “Oat, Wild plant response rating” value (wild oat; 500 g ai/ha) was 20.

From US20060069132A1, “Azolecarboxamide herbicides” (priority 2004, published 2006)
